Source: ChEMBL document CHEMBL6121046, “Discovery of Novel Hydrazide-Based HDAC3 Inhibitors as Epigenetic Immunomodulators for Cancer Immunotherapy” (J Med Chem, 2025)

Assays:
Histone deacetylase 1 = Histone deacetylase 1 (Homo sapiens, UniProt Q13547); test: Inhibition of human recombinant HDAC1 pre-incubated with compounds for 10 mins measured followed by 60 mins of substrate addition
Histone deacetylase 3 = Histone deacetylase 3 (Homo sapiens, UniProt O15379); test: Inhibition of human recombinant HDAC3 pre-incubated with compounds for 10 mins measured followed by 60 mins of substrate addition
[1] = target: T1, Protein deacetylase HDAC6 (Homo sapiens, UniProt Q9UBN7); test: Inhibition of human recombinant HDAC6 pre-incubated with compounds for 10 mins measured followed by 60 mins of substrate addition
T1 sequence (Q9UBN7 whole entry): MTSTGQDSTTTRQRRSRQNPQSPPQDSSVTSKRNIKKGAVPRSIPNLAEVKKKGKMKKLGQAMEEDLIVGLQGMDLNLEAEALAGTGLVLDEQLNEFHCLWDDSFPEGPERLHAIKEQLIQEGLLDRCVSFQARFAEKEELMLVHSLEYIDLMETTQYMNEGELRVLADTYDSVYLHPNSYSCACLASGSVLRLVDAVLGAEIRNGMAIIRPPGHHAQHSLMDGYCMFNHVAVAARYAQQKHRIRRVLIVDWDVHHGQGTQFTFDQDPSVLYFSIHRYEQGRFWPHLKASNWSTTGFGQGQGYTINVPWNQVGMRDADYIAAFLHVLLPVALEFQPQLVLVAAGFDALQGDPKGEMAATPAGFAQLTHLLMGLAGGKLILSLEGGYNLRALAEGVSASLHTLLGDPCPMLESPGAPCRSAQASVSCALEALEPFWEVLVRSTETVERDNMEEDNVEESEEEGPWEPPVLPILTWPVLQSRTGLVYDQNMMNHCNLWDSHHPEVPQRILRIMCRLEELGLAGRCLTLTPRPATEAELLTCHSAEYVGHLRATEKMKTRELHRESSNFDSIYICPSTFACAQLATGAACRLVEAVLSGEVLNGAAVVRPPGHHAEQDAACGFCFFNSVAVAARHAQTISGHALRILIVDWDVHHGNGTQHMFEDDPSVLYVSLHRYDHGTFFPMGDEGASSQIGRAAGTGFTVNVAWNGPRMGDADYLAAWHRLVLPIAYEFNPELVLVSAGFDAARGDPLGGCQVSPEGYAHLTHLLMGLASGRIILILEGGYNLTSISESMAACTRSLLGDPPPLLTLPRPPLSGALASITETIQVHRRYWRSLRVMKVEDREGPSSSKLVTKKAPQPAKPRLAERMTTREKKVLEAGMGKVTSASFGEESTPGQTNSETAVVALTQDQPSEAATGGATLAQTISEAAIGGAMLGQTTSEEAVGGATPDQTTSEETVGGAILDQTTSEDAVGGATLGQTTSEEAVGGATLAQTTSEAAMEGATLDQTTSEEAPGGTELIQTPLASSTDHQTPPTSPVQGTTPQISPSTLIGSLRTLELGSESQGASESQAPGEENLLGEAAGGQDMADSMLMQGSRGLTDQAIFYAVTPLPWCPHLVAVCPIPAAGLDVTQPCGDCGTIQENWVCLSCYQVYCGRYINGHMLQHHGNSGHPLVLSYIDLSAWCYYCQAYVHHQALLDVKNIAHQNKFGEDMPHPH

Histone deacetylase 7 = target: T2, Histone deacetylase 7 (Homo sapiens, UniProt Q8WUI4); test: Inhibition of human recombinant HDAC7 pre-incubated with compounds for 10 mins measured followed by 60 mins of substrate addition
T2 sequence (Q8WUI4 whole entry): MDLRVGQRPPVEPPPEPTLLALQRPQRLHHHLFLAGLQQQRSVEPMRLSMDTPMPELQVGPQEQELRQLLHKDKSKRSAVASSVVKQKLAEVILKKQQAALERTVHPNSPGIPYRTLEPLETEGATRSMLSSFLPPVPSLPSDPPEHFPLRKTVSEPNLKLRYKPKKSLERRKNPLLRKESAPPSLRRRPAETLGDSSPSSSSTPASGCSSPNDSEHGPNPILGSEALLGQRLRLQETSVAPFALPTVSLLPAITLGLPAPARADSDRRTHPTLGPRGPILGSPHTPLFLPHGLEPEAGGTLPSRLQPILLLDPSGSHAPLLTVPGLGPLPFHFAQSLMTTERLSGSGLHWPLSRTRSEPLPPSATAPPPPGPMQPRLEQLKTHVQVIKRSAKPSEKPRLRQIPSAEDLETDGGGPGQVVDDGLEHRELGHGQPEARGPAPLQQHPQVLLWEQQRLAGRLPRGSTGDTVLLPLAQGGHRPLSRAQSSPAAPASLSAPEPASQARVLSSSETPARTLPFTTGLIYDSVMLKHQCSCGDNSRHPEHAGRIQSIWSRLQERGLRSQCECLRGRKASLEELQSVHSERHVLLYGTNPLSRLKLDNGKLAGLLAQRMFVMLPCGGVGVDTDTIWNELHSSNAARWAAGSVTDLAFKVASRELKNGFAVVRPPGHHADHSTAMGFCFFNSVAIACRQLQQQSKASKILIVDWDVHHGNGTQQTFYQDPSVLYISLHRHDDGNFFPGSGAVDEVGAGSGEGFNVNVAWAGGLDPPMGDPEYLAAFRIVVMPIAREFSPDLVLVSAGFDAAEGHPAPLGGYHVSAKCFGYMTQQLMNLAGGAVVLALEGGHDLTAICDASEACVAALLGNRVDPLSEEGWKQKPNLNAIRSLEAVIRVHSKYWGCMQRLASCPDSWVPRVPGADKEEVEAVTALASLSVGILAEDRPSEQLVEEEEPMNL

Histone deacetylase 8 = target: T3, Histone deacetylase 8 (Homo sapiens, UniProt Q9BY41); test: Inhibition of human recombinant HDAC8 pre-incubated with compounds for 10 mins measured followed by 60 mins of substrate addition
T3 sequence (Q9BY41 whole entry): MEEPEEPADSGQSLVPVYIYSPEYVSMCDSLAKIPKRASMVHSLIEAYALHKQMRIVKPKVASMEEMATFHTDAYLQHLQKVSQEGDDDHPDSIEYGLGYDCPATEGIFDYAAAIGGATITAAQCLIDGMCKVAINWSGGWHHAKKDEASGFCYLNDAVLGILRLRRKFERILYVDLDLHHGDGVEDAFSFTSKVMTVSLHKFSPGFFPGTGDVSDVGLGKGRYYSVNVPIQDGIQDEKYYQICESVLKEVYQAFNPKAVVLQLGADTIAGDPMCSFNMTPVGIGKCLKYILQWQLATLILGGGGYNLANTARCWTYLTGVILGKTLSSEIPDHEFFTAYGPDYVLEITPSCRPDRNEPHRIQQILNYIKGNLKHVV

B16-F10 = test: Antiproliferative activity against mouse B16-F10 cells at 1 uM measured after 48 hrs incubation by MTT assay relative to control
HeLa = test: Antiproliferative activity against human HeLa cells measured after 48 hrs incubation by MTT assay relative to control; type: functional, cell-based
HepG2 = test: Antiproliferative activity against human HepG2 cells measured after 48 hrs incubation by MTT assay relative to control; type: functional, cell-based; conditions: HepG2, 48 h
MCF7 = test: Antiproliferative activity against human MCF7 cells measured after 48 hrs incubation by MTT assay relative to control; type: functional, cell-based; conditions: MCF7, 48 h
MC-38 = test: Antiproliferative activity against mouse MC38 cells measured after 48 hrs incubation by MTT assay relative to control; type: functional, cell-based; conditions: MC-38, 48 h
[2] = Antiproliferative activity against […] cells measured after 48 hrs incubation by MTT assay relative to control; type: functional, cell-based; conditions: Mus musculus, Lung cancer cell line
HCT-116 = test: Antiproliferative activity against human HCT-116 cells measured after 48 hrs incubation by MTT assay relative to control; type: functional, cell-based; conditions: HCT-116, 48 h
B16-F10 (Mus musculus) = test: Antiproliferative activity against mouse B16-F10 cells measured after 48 hrs incubation by MTT assay relative to control; conditions: B16-F10, 48 h

Histone deacetylase 3, sequence (O15379 whole entry): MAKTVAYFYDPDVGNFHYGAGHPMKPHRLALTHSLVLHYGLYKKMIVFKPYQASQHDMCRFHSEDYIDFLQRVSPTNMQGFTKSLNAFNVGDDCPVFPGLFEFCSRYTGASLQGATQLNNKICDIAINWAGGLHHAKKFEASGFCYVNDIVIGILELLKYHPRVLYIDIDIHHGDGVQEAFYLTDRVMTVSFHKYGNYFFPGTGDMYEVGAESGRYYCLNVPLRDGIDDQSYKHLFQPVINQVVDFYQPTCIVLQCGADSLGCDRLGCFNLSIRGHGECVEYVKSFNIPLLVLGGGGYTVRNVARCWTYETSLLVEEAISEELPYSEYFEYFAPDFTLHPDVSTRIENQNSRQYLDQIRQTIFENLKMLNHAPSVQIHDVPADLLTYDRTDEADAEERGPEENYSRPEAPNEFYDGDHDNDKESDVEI
Histone deacetylase 1, sequence (Q13547 whole entry): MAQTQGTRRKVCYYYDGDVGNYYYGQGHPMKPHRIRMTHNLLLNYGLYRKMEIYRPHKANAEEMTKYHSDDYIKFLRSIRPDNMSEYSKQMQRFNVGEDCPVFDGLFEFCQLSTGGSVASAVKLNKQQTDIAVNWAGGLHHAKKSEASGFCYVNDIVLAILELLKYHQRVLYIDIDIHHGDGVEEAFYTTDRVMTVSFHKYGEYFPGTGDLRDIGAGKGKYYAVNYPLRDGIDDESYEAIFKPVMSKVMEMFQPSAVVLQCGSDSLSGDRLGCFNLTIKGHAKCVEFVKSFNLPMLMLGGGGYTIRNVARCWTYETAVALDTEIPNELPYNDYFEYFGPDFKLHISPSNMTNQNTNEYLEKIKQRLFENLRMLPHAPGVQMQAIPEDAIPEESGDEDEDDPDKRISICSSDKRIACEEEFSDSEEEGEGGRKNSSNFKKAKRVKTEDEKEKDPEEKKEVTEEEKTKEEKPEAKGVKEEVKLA

Structure (SMILES)	IC50 (Histone deacetylase 1) [nM]	IC50 (Histone deacetylase 3) [nM]	IC50 [1] [nM]	IC50 (Histone deacetylase 7) [nM]	IC50 (Histone deacetylase 8) [nM]	Activity (B16-F10) [%]	IC50 (HeLa) [nM]	IC50 (HepG2) [nM]	IC50 (MCF7) [nM]	IC50 (MC-38) [nM]	IC50 [2] [nM]	IC50 (HCT-116) [nM]	IC50 (B16-F10 (Mus musculus)) [nM]
COc1ccc(-c2ncc(C(=O)NCc3ccc(C(=O)Nc4ccccc4N)cc3)[nH]2)cc1	4450	100	> 10000	> 10000	> 10000	28.07							
CCCNNC(=O)c1ccc(CNC(=O)c2cnc(-c3ccc4c(c3)OCCO4)[nH]2)cc1	3910	290	> 10000	> 10000	> 10000	23.11							
Nc1ccccc1NC(=O)c1ccc(CNC(=O)c2cnc(-c3ccc(F)cc3)[nH]2)cc1						9.98							
Nc1ccccc1NC(=O)c1ccc(CNC(=O)c2cnc(-c3ccc4c(c3)OCCO4)[nH]2)cc1	3660	330	> 10000	> 10000	> 10000	13.1							
Nc1ccccc1NC(=O)c1ccc(CNC(=O)c2cnc(-c3ccc4ccccc4c3)[nH]2)cc1	4620	100	> 10000	> 10000	> 10000	28.15							
CCCNNC(=O)c1ccc(CNC(=O)c2cnc(-c3ccc(OC)cc3)[nH]2)cc1	2360	88	> 10000	> 10000	> 10000	33.01							
CCCNNC(=O)c1ccc(CNC(=O)c2cnc(-c3ccnc4ccccc34)[nH]2)cc1	3240	170	> 10000	> 10000	> 10000	13.07							
CCCNNC(=O)c1ccc(CNC(=O)c2cnc(-c3ccc4ccccc4c3)[nH]2)cc1	1740	74	> 10000	> 10000	> 10000	52.99	1670	690	2110	3470	1370	220	1970
COc1ccc(-c2ncc(C(=O)NCCCCCCC(=O)NO)s2)c(OC)c1		31											
Nc1ccccc1NC(=O)c1ccc(CNC(=O)c2cnc(-c3cccc4ccccc34)[nH]2)cc1	2430	96	9430	> 10000	> 10000	39.28							
CCCNNC(=O)c1ccc(CNC(=O)c2cnc(-c3ccc4[nH]ccc4c3)[nH]2)cc1						2.77							
CCCNNC(=O)c1ccc(CNC(=O)c2cnc(-c3ccccc3)[nH]2)cc1	2060	66	8910	> 10000	> 10000	49.33	1970	500	2290	5300	2190	160	3060
CCCNNC(=O)c1ccc(CNC(=O)c2cnc(-c3ccc(F)cc3)[nH]2)cc1	960	130	9020	> 10000	> 10000	37.64							
CCCNNC(=O)c1ccc(CNC(=O)c2ncc(CNc3ccccc3)s2)cc1						57.29	3770	670	1760	2350	250	310	1770
Nc1ccccc1NC(=O)c1ccc(CNC(=O)c2cnc(-c3ccc4occc4c3)[nH]2)cc1	4180	91	> 10000	> 10000	> 10000	31.86							
Nc1ccccc1NC(=O)c1ccc(CNC(=O)c2cnc(-c3ccccc3)[nH]2)cc1	1410	120	> 10000	> 10000	> 10000	15.84							
